Assay results published in patent US20230348369A1 (Cytokinetics, Inc., priority 2020, published 2023).
Where two headings read alike, the source gives them in different places.

Target: human NAMPT (Homo sapiens, UniProt P43490)
Test: Human recombinant enzyme assay (NMN fluorescence biochemical assay, activation of NAMPT)
Protocol: Compounds described herein were assayed for their ability to stimulate the synthesis of nicotinamide mononucleotide (NMN) by the enzyme NAMPT. The human recombinant enzyme assay measures the activation of the enzyme activity by compounds using recombinant enzyme and substrates in a buffered cell-free system. The assay conditions closely mimic cellular environments. Dose responses were measured using an assay to detect the formation of nicotinamide mono-nucleotide. All experiments were performed in the 384-well format. […] Enzyme reactions were initiated with the addition of 10 μL of a solution containing the substrates. The final assay conditions were as follows: 6 nM human NAMPT, 2.5 mM ATP, 20 μM PRPP and 150 μM nicotinamide in 50 mM HEPES, pH 7.2, 1 mM DTT, 1 mM CHAPS 50 mM NaCl, 100 mM MgCl2. Following an incubation of 60 min at ambient temperature, 10 μL of 20% acetophenone in DMSO was added, followed by 10 μL of 2 M KOH and 40 μL of formic acid. The plates were read for fluorescence (Excitation/Emission=355 nm/460 nm) using an EnVision plate reader after 40 mins of incubation at ambient temperature.

[1] = Table A, human recombinant NAMPT, NMN formation, 60 min
[2] = Table A, human recombinant NAMPT, NMN formation, 60 min, read-out: EC50 Human

Sequence of human NAMPT (P43490 whole entry): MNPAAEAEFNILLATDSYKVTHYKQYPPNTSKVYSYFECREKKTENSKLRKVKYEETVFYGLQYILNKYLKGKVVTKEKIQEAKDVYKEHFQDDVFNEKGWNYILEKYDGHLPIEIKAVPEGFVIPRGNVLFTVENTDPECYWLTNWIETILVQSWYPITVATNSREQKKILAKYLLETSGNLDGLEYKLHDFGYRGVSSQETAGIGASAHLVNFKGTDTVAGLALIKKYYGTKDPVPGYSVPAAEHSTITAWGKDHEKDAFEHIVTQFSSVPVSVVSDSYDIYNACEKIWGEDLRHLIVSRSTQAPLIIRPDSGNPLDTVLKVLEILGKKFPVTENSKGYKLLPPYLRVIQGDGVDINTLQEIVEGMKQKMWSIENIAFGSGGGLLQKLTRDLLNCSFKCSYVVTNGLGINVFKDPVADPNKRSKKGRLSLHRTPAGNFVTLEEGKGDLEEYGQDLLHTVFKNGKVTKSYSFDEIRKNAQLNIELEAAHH

AC1.4 Human [1] [µM]	EC50 [2] [µM]	Structure (SMILES)	EC50 [µM]
4.9	46.4	COc1ccc(CNC(=O)NC2CC3(C2)CC(C(=O)NC2(c4ccccc4)CC2)C3)cc1 (centres unmarked) [Compound 43, 6-(3-(4-methoxybenzyl)ureido)-N-(1-phenylcyclopropyl)spiro[3.3]heptane-2-carboxamide]	
10.1	36.5	COc1ccc(CNC(=O)NC2CC3(C2)CC(C(=O)N2CCCC2c2ccccc2)C3)cc1 (centres unmarked) [Compound 44, 1-(4-methoxybenzyl)-3-(6-(2-phenylpyrrolidine-1-carbonyl)spiro[3.3]heptan-2-yl)urea]	
6.8	41.3	COc1ccc(CNC(=O)NC2CC3(C2)CC(C(=O)N[C@H](CO)c2ccccc2)C3)cc1 (stereo partly drawn) [Compound 46, (S)-N-(2-hydroxy-1-phenylethyl)-6-(3-(4-methoxybenzyl)ureido)spiro[3.3]heptane-2-carboxamide]	
4.7	52.1	COc1ccc(CNC(=O)NC2CC3(C2)CC(C(=O)N2CCC2c2ccccc2)C3)cc1 (centres unmarked) [Compound 48, 1-(4-methoxybenzyl)-3-(6-(2-phenylazetidine-1-carbonyl)spiro[3.3]heptan-2-yl)urea]	
17.9	32.8	COc1ccc(CNC(=O)NC2CC3(C2)CC(C(=O)NCc2ccncc2)C3)cc1 (centres unmarked) [Compound 50, 6-(3-(4-methoxybenzyl)ureido)-N-(pyridin-4-ylmethyl)spiro[3.3]heptane-2-carboxamide]	
1.5	53.1	COc1ccc(CNC(=O)NC2CC3(C2)CC(C(=O)N(C)Cc2ccccc2)C3)cc1 (centres unmarked) [Compound 51, N-benzyl-6-(3-(4-methoxybenzyl)ureido)-N-methylspiro[3.3]heptane-2-carboxamide]	
1.4	29.4	COc1ccc(CNC(=O)NC2CC3(C2)CC(C(=O)NCC(C)(C)c2ccccc2C)C3)cc1 (centres unmarked) [Compound 54, 6-(3-(4-methoxybenzyl)ureido)-N-(2-methyl-2-(o-tolyl)propyl)spiro[3.3]heptane-2-carboxamide]	
1.1	40.6	COc1ccc(CNC(=O)NC2CC3(C2)CC(C(=O)NCC(C)(C)c2ccccc2F)C3)cc1 (centres unmarked) [Compound 55, N-(2-(2-fluorophenyl)-2-methylpropyl)-6-(3-(4-methoxybenzyl)ureido)spiro[3.3]heptane-2-carboxamide]	
9.0	47.7	COc1ccc(CNC(=O)NC2CC3(C2)CC(C(=O)NCc2ccccn2)C3)cc1 (centres unmarked) [Compound 56, 6-(3-(4-methoxybenzyl)ureido)-N-(pyridin-2-ylmethyl)spiro[3.3]heptane-2-carboxamide]	
1.0	25.8	COc1ccc(CNC(=O)NC2CC3(C2)CC(C(=O)N2CCC(c4ccccc4)C2)C3)cc1 (centres unmarked) [Compound 57, 1-(4-methoxybenzyl)-3-(6-(3-phenylpyrrolidine-1-carbonyl)spiro[3.3]heptan-2-yl)urea]	
2.5	34.9	COc1ccc(CNC(=O)NC2CC3(C2)CC(C(=O)N2CC(c4ccccc4)C2)C3)cc1 (centres unmarked) [Compound 61, 1-(4-methoxybenzyl)-3-(6-(3-phenylazetidine-1-carbonyl)spiro[3.3]heptan-2-yl)urea]	
4.4	4.4	COc1ccc(CNC(=O)NC2CC3(C2)CC(C(=O)N[C@H]2C[C@H](c4ccccc4)C2)C3)cc1 (some centres unmarked) [Compound 63, 6-(3-(4-methoxybenzyl)ureido)-N-((1r,3r)-3-phenylcyclobutyl)spiro[3.3]heptane-2-carboxamide]	
5.1	45.2	COc1ccc(CNC(=O)NC2CC3(C2)CC(C(=O)NCc2ccccc2)C3)cc1 (centres unmarked) [Compound 68, N-benzyl-6-(3-(4-methoxybenzyl)ureido)spiro[3.3]heptane-2-carboxamide]	

Continued, compound first:

Structure (SMILES)	AC1.4 Human [1] [µM]	EC50 [2] [µM]	EC50 [µM]
COc1ccc(CNC(=O)NC2CC3(C2)CN(C(=O)Cc2ccccc2C)C3)cc1 [Compound 42, 1-(4-methoxybenzyl)-3-(2-(2-(o-tolyl)acetyl)-2-azaspiro[3.3]heptan-6-yl)urea]	10.7	42.2	
COc1ccc(CNC(=O)NC2CC3(C2)CC(C(=O)N[C@H](C)c2ccccc2)C3)cc1 (stereo partly drawn) [Compound 45, (R)-6-(3-(4-methoxybenzyl)ureido)-N-(1-phenylethyl)spiro[3.3]heptane-2-carboxamide]	6.6		51.7
COc1ccc(CNC(=O)NC2CC3(C2)CC(C(=O)N[C@@H](C)c2ccccc2)C3)cc1 (stereo partly drawn) [Compound 47, (S)-6-(3-(4-methoxybenzyl)ureido)-N-(1-phenylethyl)spiro[3.3]heptane-2-carboxamide]	6.5		40.6
COc1ccc(CNC(=O)NC2CC3(C2)CC(C(=O)NCc2cccnc2)C3)cc1 (centres unmarked) [Compound 49, 6-(3-(4-methoxybenzyl)ureido)-N-(pyridin-3-ylmethyl)spiro[3.3]heptane-2-carboxamide]	6.6	46.8	
COc1ccc(CNC(=O)NC2CC3(CC(CN4CCCC4c4ccccc4)C3)C2)cc1 (centres unmarked) [Compound 52, 1-(4-methoxybenzyl)-3-(6-((2-phenylpyrrolidin-1-yl)methyl)spiro[3.3]heptan-2-yl)urea]	4.2	43.8	
COc1ccc(CNC(=O)NC2CC3(C2)CC(C(=O)N(C)[C@H](C)c2ccccc2F)C3)cc1 (stereo partly drawn) [Compound 53, (R)-N-(1-(2-fluorophenyl)ethyl)-6-(3-(4-methoxybenzyl)ureido)-N-methylspiro[3.3]heptane-2-carboxamide]	0.3	8.5	
COc1ccc(CNC(=O)NC2CC3(C2)CC(C(=O)N2CCCC2c2ccncc2)C3)cc1 (centres unmarked) [Compound 58, 1-(4-methoxybenzyl)-3-(6-(2-(pyridin-4-yl)pyrrolidine-1-carbonyl)spiro[3.3]heptan-2-yl)urea]	11.3	39.6	
COc1ccc(CNC(=O)NC2CC3(C2)CC(C(=O)N2CCC[C@@H]2c2cccnc2)C3)cc1 (stereo partly drawn) [Compound 59, (R)-1-(4-methoxybenzyl)-3-(6-(2-(pyridin-3-yl)pyrrolidine-1-carbonyl)spiro[3.3]heptan-2-yl)urea]	11.2	40.5	
COc1ccc(CNC(=O)NC2CC3(C2)CC(C(=O)N(C)[C@@H](C)c2ccccc2F)C3)cc1 (stereo partly drawn) [Compound 60, (S)-N-(1-(2-fluorophenyl)ethyl)-6-(3-(4-methoxybenzyl)ureido)-N-methylspiro[3.3]heptane-2-carboxamide]	0.3	6.1	
COc1ccc(CNC(=O)NC2CC3(C2)CC(C(=O)N2CCN(C(=O)c4ccccc4)CC2)C3)cc1 (centres unmarked) [Compound 62, 1-(6-(4-benzoylpiperazine-1-carbonyl)spiro[3.3]heptan-2-yl)-3-(4-methoxybenzyl)urea]	1.2	23.6	
COc1ccc(CNC(=O)NC2CC3(C2)CC(C(=O)NCC(C)(C)c2ccccc2OC)C3)cc1 (centres unmarked) [Compound 64, 6-(3-(4-methoxybenzyl)ureido)-N-(2-(2-methoxyphenyl)-2-methylpropyl)spiro[3.3]heptane-2-carboxamide]	1.4	50.1	
COc1ccc(CNC(=O)NC2CC3(C2)CC(C(=O)NCC(C)(C)c2ccccn2)C3)cc1 (centres unmarked) [Compound 65, 6-(3-(4-methoxybenzyl)ureido)-N-(2-methyl-2-(pyridin-2-yl)propyl)spiro[3.3]heptane-2-carboxamide]	2.6	50	
COc1ccc(CNC(=O)NC2CC3(C2)CC(C(=O)NCC(C)(C)c2cccnc2)C3)cc1 (centres unmarked) [Compound 66, 6-(3-(4-methoxybenzyl)ureido)-N-(2-methyl-2-(pyridin-3-yl)propyl)spiro[3.3]heptane-2-carboxamide]	3.3	37.8	
COc1ccc(CNC(=O)NC2CC3(CC(CC(=O)N(C)Cc4ccccc4)C3)C2)cc1 (centres unmarked) [Compound 67, N-benzyl-2-(6-(3-(4-methoxybenzyl)ureido)spiro[3.3]heptan-2-yl)-N-methylacetamide]	2.3		35.9
COc1ccc(CNC(=O)NC2CC3(C2)CC(C(=O)NCCc2ccccc2)C3)cc1 (centres unmarked) [Compound 69, 6-(3-(4-methoxybenzyl)ureido)-N-phenethylspiro[3.3]heptane-2-carboxamide]	4.7		38.4
COc1ccc(CNC(=O)NC2CC3(C2)CC(C(=O)NC(C)(C)c2ccccc2)C3)cc1 (centres unmarked) [Compound 70, 6-(3-(4-methoxybenzyl)ureido)-N-(2-phenylpropan-2-yl)spiro[3.3]heptane-2-carboxamide]	3.9		38.6
COc1ccc(CNC(=O)NC2CC3(C2)CC(C(=O)NCCc2cn[nH]c2)C3)cc1 (centres unmarked) [Compound 75, N-(2-(1H-pyrazol-4-yl)ethyl)-6-(3-(4-methoxybenzyl)ureido)spiro[3.3]heptane-2-carboxamide]	11.5	42	
COc1ccc(CNC(=O)NC2CC3(C2)CC(C(=O)NCc2ccc(C#N)cc2F)C3)cc1 (centres unmarked) [Compound 77, N-(4-cyano-2-fluorobenzyl)-6-(3-(4-methoxybenzyl)ureido)spiro[3.3]heptane-2-carboxamide]	7.2	35.1	
